US9024027B2, “Derivatives of 1-phenyl-2-pyridinyl alkyl alcohols as phosphodiesterase inhibitors” (Chiesi Farmaceutici S.p.A., priority 2011, dated 2015)
Counter-ions that a name gives are not always drawn.

tested on: LPS-induced TNF-α release in peripheral blood mononuclear cells (PBMCs); assay: In vitro determination of PDE4 inhibitory activity in the PBMCs assay (LPS-induced TNF-α release); type: cell-based; details: PBMC; human PBMCs, LPS 3 ng/ml, 18 hours; read-out: PDE4 inhibition (IC50, 50% inhibition of LPS-induced TNF-α release)
Procedure: The assay, which is based on the known inhibitory activity exerted by PDE4 inhibitors on the lipopolyshaccarides (LPS)-induced tumour necrosis factor-alpha (TNF-α release in peripheral blood mononuclear cells (PBMCs), was performed according to a method previously described (Hatzelmann A et al., J. Pharmacol. Exp. Ther., 2001; 297:267-279; and Draheim R et al., J. Pharmacol. Exp. Ther., 2004; 308:555-563, both of which are incorporated herein by reference in their entireties. Cryopreserved human PBMCs, (100 μl/well) were incubated in 96-well plates (10^5 cells/well), for 30 minutes, in the presence or absence (50 microl) of the test compounds whose concentrations ranged from 10^−12 M to 10^−6 M or from 10^−13 M to 10^−7 M. Subsequently, LPS (3 ng/ml) was added. After 18 hours of incubation at 37° C. in a humidified incubator under an atmosphere of 95% air and 5% CO2, culture medium was collected and TNF-α measured by ELISA.
The results of the tested compounds, representatives of the invention, expressed as mean±95% confidence limits of the molar concentration of the test compound producing 50% inhibition of LPS-induced TNF-α release (IC50) are shown in the following Table: […]

Structure (SMILES) | IC50 [nM]
COc1cc2c(cc1OC)CN(CC(=O)O[C@@H](Cc1c(Cl)c[n+]([O-])cc1Cl)c1ccc(OC(F)F)c(OCC3CC3)c1)CC2 [Compound 105, (S)-3,5-dichloro-4-(2-(3-(cyclopropylmethoxy)-4-(difluoromethoxy)phenyl)-2-(2-(6,7-dimethoxy-3,4-dihydroisoquinolin-2(1H)-yl)acetoxy)ethyl)pyridine 1-oxide] | < 1
CS(=O)(=O)Nc1ccc2c(c1)CC(=O)N2CC(=O)O[C@@H](Cc1c(Cl)c[n+]([O-])cc1Cl)c1ccc(OC(F)F)c(OCC2CC2)c1 [Compound 112, (S)-3,5-dichloro-4-(2-(3-(cyclopropylmethoxy)-4-(difluoromethoxy)phenyl)-2-(2-(5-(methylsulfonamido)-2-oxoindolin-1-yl)acetoxy)ethyl)pyridine 1-oxide] | < 1
COc1ccc2c(c1)CC(=O)N2CC(=O)O[C@@H](Cc1c(Cl)c[n+]([O-])cc1Cl)c1ccc(OC(F)F)c(OCC2CC2)c1 [Compound 117, (S)-3,5-dichloro-4-(2-(3-(cyclopropylmethoxy)-4-(difluoromethoxy)phenyl)-2-(2-(5-methoxy-2-oxoindolin-1-yl)acetoxy)-ethyl)pyridine 1-oxide] | < 1
CS(=O)(=O)Nc1ccc2c(c1)CCN2CC(=O)O[C@@H](Cc1c(Cl)c[n+]([O-])cc1Cl)c1ccc(OC(F)F)c(OCC2CC2)c1 [Compound 131, (S)-3,5-dichloro-4-(2-(3-(cyclopropylmethoxy)-4-(difluoromethoxy)phenyl)-2-(2-(5-(methylsulfonamido)indolin-1-yl)acetoxy)-ethyl)pyridine 1-oxide] | 1 to 10
O=C(CN1C(=O)C(=O)c2ccc(N3CCOCC3)cc21)O[C@@H](Cc1c(Cl)c[n+]([O-])cc1Cl)c1ccc(OC(F)F)c(OCC2CC2)c1 [Compound 142, (S)-3,5-dichloro-4-(2-(3-(cyclopropylmethoxy)-4-(difluoromethoxy)phenyl)-2-(2-(6-morpholino-2,3-dioxoindolin-1-yl)acetoxy)ethyl)pyridine 1-oxide] | 1 to 10
COc1cc2c(cc1OC)C(=O)N(CC(=O)O[C@@H](Cc1c(Cl)c[n+]([O-])cc1Cl)c1ccc(OC(F)F)c(OCC3CC3)c1)C2=O [Compound 156, (S)-3,5-dichloro-4-(2-(3-(cyclopropylmethoxy)-4-(difluoromethoxy)phenyl)-2-(2-(5,6-dimethoxy-1,3-dioxoisoindolin-2-yl)acetoxy)ethyl)pyridine 1-oxide] | < 1
CS(=O)(=O)Nc1cccc2c1C(=O)N(CC(=O)O[C@@H](Cc1c(Cl)c[n+]([O-])cc1Cl)c1ccc(OC(F)F)c(OCC3CC3)c1)C2=O [Compound 162, (S)-3,5-dichloro-4-(2-(3-(cyclopropylmethoxy)-4-(difluoromethoxy)phenyl)-2-(2-(4-(methylsulfonamido)-1,3-dioxoisoindolin-2-yl)acetoxy)ethyl)pyridine 1-oxide] | < 1
CS(=O)(=O)Nc1ccc2c(c1)C(=O)N(CC(=O)O[C@@H](Cc1c(Cl)c[n+]([O-])cc1Cl)c1ccc(OC(F)F)c(OCC3CC3)c1)C2=O [Compound 167, (S)-3,5-dichloro-4-(2-(3-(cyclopropylmethoxy)-4-(difluoromethoxy)phenyl)-2-(2-(5-(methylsulfonamido)-1,3-dioxoisoindolin-2-yl)acetoxy)ethyl)pyridine 1-oxide] | < 1
O=C(CN1C(=O)c2ccc(NO)cc2C1=O)O[C@@H](Cc1c(Cl)c[n+]([O-])cc1Cl)c1ccc(OC(F)F)c(OCC2CC2)c1 [Compound 169, (S)-3,5-dichloro-4-(2-(3-(cyclopropylmethoxy)-4-(difluoromethoxy)phenyl)-2-(2-(5-(hydroxyamino)-1,3-dioxoisoindolin-2-yl)acetoxy)ethyl)pyridine 1-oxide] | < 1
O=C(CN1C(=O)c2cccc(NO)c2C1=O)O[C@@H](Cc1c(Cl)c[n+]([O-])cc1Cl)c1ccc(OC(F)F)c(OCC2CC2)c1 [Compound 170] | < 1
COCC(=O)Nc1cccc2c1C(=O)N(CC(=O)O[C@@H](Cc1c(Cl)c[n+]([O-])cc1Cl)c1ccc(OC(F)F)c(OCC3CC3)c1)C2=O [Compound 173, (S)-3,5-dichloro-4-(2-(3-(cyclopropylmethoxy)-4-(difluoromethoxy)phenyl)-2-(2-(4-(2-methoxyacetamido)-1,3-dioxoisoindolin-2-yl)acetoxy)ethyl)pyridine 1-oxide] | < 1
CS(=O)(=O)N(CCN1CCOCC1)c1cccc2c1C(=O)N(CC(=O)O[C@@H](Cc1c(Cl)c[n+]([O-])cc1Cl)c1ccc(OC(F)F)c(OCC3CC3)c1)C2=O [Compound 176, (S)-3,5-dichloro-4-(2-(3-(cyclopropylmethoxy)-4-(difluoromethoxy)phenyl)-2-(2-(4-(N-(2-morpholinoethyl)methylsulfonamido)-1,3-dioxoisoindolin-2-yl)acetoxy)ethyl)pyridine 1-oxide 2,2,2-trifluoroacetic acid salt] | 1 to 10
CS(=O)(=O)N(CCN1CCOCC1)c1ccc2c(c1)C(=O)N(CC(=O)O[C@@H](Cc1c(Cl)c[n+]([O-])cc1Cl)c1ccc(OC(F)F)c(OCC3CC3)c1)C2=O [Compound 182, (S)-3,5-dichloro-4-(2-(3-(cyclopropylmethoxy)-4-(difluoromethoxy)phenyl)-2-(2-(5-(N-(2-morpholinoethyl)methylsulfonamido)-1,3-dioxoisoindolin-2-yl)acetoxy)ethyl)pyridine 1-oxide 2,2,2 trifluoroacetic acid salt] | < 1
CS(=O)(=O)N(CCN1CCCC1)c1ccc2c(c1)C(=O)N(CC(=O)O[C@@H](Cc1c(Cl)c[n+]([O-])cc1Cl)c1ccc(OC(F)F)c(OCC3CC3)c1)C2=O [Compound 183] | < 1
CS(=O)(=O)N(Cc1cccnc1)c1ccc2c(c1)C(=O)N(CC(=O)O[C@@H](Cc1c(Cl)c[n+]([O-])cc1Cl)c1ccc(OC(F)F)c(OCC3CC3)c1)C2=O [Compound 186] | < 1
CS(=O)(=O)N(CCN1CCCCC1)c1ccc2c(c1)C(=O)N(CC(=O)O[C@@H](Cc1c(Cl)c[n+]([O-])cc1Cl)c1ccc(OC(F)F)c(OCC3CC3)c1)C2=O [Compound 189, (S)-3,5-dichloro-4-(2-(3-(cyclopropylmethoxy)-4-(difluoromethoxy)phenyl)-2-(2-(1,3-dioxo-5-(N-(2-(piperidin-1-yl)ethyl)methylsulfonamido)isoindolin-2-yl)acetoxy)ethyl)pyridine 1-oxide] | > 10
CS(=O)(=O)N(Cc1ccccn1)c1ccc2c(c1)C(=O)N(CC(=O)O[C@@H](Cc1c(Cl)c[n+]([O-])cc1Cl)c1ccc(OC(F)F)c(OCC3CC3)c1)C2=O [Compound 190] | < 1
Cc1noc(C)c1CN(c1ccc2c(c1)C(=O)N(CC(=O)O[C@@H](Cc1c(Cl)c[n+]([O-])cc1Cl)c1ccc(OC(F)F)c(OCC3CC3)c1)C2=O)S(C)(=O)=O [Compound 191] | < 1
COc1ccnc(CN(c2ccc3c(c2)C(=O)N(CC(=O)O[C@@H](Cc2c(Cl)c[n+]([O-])cc2Cl)c2ccc(OC(F)F)c(OCC4CC4)c2)C3=O)S(C)(=O)=O)c1 [Compound 194] | 1 to 10
CN1CCN(CCN(c2ccc3c(c2)C(=O)N(CC(=O)O[C@@H](Cc2c(Cl)c[n+]([O-])cc2Cl)c2ccc(OC(F)F)c(OCC4CC4)c2)C3=O)S(C)(=O)=O)CC1 [Compound 213, (S)-3,5-Dichloro-4-(2-(3-(cyclopropylmethoxy)-4-(difluoromethoxy)-phenyl)-2-(2-(5-(N-(2-(4-methylpiperazin-1-yl)ethyl)methylsulfonamido)-1,3-dioxoisoindolin-2-yl)acetoxy)ethyl)pyridine 1-oxide] | < 1
CC(=O)N1CCN(CCN(c2ccc3c(c2)C(=O)N(CC(=O)O[C@@H](Cc2c(Cl)c[n+]([O-])cc2Cl)c2ccc(OC(F)F)c(OCC4CC4)c2)C3=O)S(C)(=O)=O)CC1 [Compound 214] | < 1
CS(=O)(=O)N(CCN1CCSCC1)c1ccc2c(c1)C(=O)N(CC(=O)O[C@@H](Cc1c(Cl)c[n+]([O-])cc1Cl)c1ccc(OC(F)F)c(OCC3CC3)c1)C2=O [Compound 215] | < 1
CS(=O)(=O)N(CCN1CCOCC1)c1ccc2c(ccn2CC(=O)O[C@@H](Cc2c(Cl)c[n+]([O-])cc2Cl)c2ccc(OC(F)F)c(OCC3CC3)c2)c1 [Compound 230, (S)-3,5-dichloro-4-(2-(3-(cyclopropylmethoxy)-4-(difluoromethoxy)phenyl)-2-(2-(5-(N-(2-morpholinoethyl)methylsulfonamido)-1H-indol-1-yl)acetoxy)ethyl)pyridine 1-oxide hydrochloride] | < 1
CS(=O)(=O)N(CCN1CCOCC1)c1cccc2c1ccn2CC(=O)O[C@@H](Cc1c(Cl)c[n+]([O-])cc1Cl)c1ccc(OC(F)F)c(OCC2CC2)c1 [Compound 233, (S)-3,5-dichloro-4-(2-(3-(cyclopropylmethoxy)-4-(difluoromethoxy)phenyl)-2-(2-(4-(N-(2-morpholinoethyl)methylsulfonamido)-1H-indol-1-yl)acetoxy)ethyl)pyridine 1-oxide] | 1 to 10
CS(=O)(=O)N(CCN1CCOCC1)c1ccc2c(c1)C(=O)C(=O)N2CC(=O)O[C@@H](Cc1c(Cl)c[n+]([O-])cc1Cl)c1ccc(OC(F)F)c(OCC2CC2)c1 [Compound 240, (S)-3,5-dichloro-4-(2-(3-(cyclopropylmethoxy)-4-(difluoromethoxy)phenyl)-2-(2-(5-(N-(2-morpholinoethyl)methylsulfonamido)-2,3-dioxoindolin-1-yl)acetoxy)ethyl)pyridine 1-oxide] | < 1
